Test [1] has as its target T1, IL-17A/F (Homo sapiens, UniProt Q16552+Q96PD4).
T1 construct: purchased R&D Systems
T1 sequence (Q16552 24-155): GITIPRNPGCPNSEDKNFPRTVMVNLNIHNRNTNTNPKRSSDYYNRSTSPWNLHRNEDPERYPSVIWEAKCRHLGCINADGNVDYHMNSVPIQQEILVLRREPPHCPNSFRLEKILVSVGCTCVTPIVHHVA
T1 sequence (Q96PD4 31-163): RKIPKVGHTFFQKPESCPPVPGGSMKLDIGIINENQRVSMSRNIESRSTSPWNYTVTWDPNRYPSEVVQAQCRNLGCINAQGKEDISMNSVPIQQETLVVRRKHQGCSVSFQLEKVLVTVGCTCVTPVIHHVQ
As to the kind of experiment: IL-17A/F HEK-Blue cell assay (SEAP reporter). The settings on record: HEK-Blue IL-17A reporter cells, IL17A/F 5 ng/mL, 20 hours, SEAP read at A630; read-out: HEK-Blue IL17AF (IC50 for IL-17A/F inhibition). The format is cell-based.

For test [2], the target named is T2, IL-17A/A (Homo sapiens, UniProt Q16552).
T2 construct: purchased Genscript Z03228
T2 sequence (Q16552 24-155): T1 sequence (Q16552 24-155)
As to the kind of experiment: IL-17A/A HEK-Blue cell assay (SEAP reporter). The note with it: HEK-Blue IL-17A reporter cells, IL17A/A 5 ng/mL, 20 hours, SEAP read at A630; read-out: HEK-Blue IL17AA (IC50 for IL-17A/A inhibition). Type of test: cell-based.

For the molecule `CCn1nccc1C(=O)N[C@H](c1cn2nc(C[C@H]3C[C@@H](C(F)(F)F)CNC3=O)c(C3CCOC4(C3)CN(C)C4)nc2n1)C1CCC(F)(F)CC1` (stereo partly drawn) [Compound 354, N-((1S)-(4,4-difluorocyclohexyl)(3-(2-methyl-5-oxa-2-azaspiro[3.5]nonan-8-yl)-2-(((3R,5R)-2-oxo-5-(trifluoromethyl)piperidin-3-yl)methyl)imidazo[1,2-b][1,2,4]triazin-6-yl)methyl)-1-ethyl-1H-pyrazole-5-carboxamide], the results for the IC50 in test [1] and in test [2] were over 1000 nM and 100 to 1000 nM, respectively.

For the molecule `CCn1nccc1C(=O)N[C@H](c1cn2nc(C[C@H]3C[C@@H](C(F)(F)F)CNC3=O)c(C3COC4(C3)CN(C)C4)nc2n1)C1CCC(F)(F)CC1` (stereo partly drawn) [Compound 355, N-((1S)-(4,4-difluorocyclohexyl)(3-(2-methyl-5-oxa-2-azaspiro[3.4]octan-7-yl)-2-(((3R,5R)-2-oxo-5-(trifluoromethyl)piperidin-3-yl)methyl)imidazo[1,2-b][1,2,4]triazin-6-yl)methyl)-1-ethyl-1H-pyrazole-5-carboxamide], the IC50 in test [1] was over 1000 nM; in test [2], 100 to 1000 nM.

Take `CCn1nccc1C(=O)N[C@H](c1cn2nc(C[C@H]3C[C@@H](C(F)(F)F)CNC3=O)c(CN(C)C3CC3)nc2n1)C1CCC(F)(F)CC1` [Compound 356, N—((S)-(3-((cyclopropyl(methyl)amino)methyl)-2-(((3R,5R)-2-oxo-5-(trifluoromethyl)piperidin-3-yl)methyl)imidazo[1,2-b][1,2,4]triazin-6-yl)(4,4-difluorocyclohexyl)methyl)-1-ethyl-1H-pyrazole-5-carboxamide]: the IC50 in test [1] was 100 to 1000 nM; in test [2] it was under 100 nM.

As for `CCn1nccc1C(=O)N[C@H](c1cn2nc(C[C@H]3C[C@@H](C(F)(F)F)CNC3=O)c(N3CCN(C)C4(CC4)C3)nc2n1)C1CCC(F)(F)CC1` [Compound 357, N—((S)-(4,4-difluorocyclohexyl)(3-(4-methyl-4,7-diazaspiro[2.5]octan-7-yl)-2-(((3R,5R)-2-oxo-5-(trifluoromethyl)piperidin-3-yl)methyl)imidazo[1,2-b][1,2,4]triazin-6-yl)methyl)-1-ethyl-1H-pyrazole-5-carboxamide], the IC50 in test [1] is 100 to 1000 nM; in test [2], under 100 nM.

On to `CCn1nccc1C(=O)N[C@H](c1cn2nc(C[C@H]3C[C@@H](C(F)(F)F)CNC3=O)c(C3CCn4nccc4C3)nc2n1)C1CCC(F)(F)CC1` (stereo partly drawn) [Compound 358, N-((1S)-(4,4-difluorocyclohexyl)(2-(((3R,5R)-2-oxo-5-(trifluoromethyl)piperidin-3-yl)methyl)-3-(4,5,6,7-tetrahydropyrazolo[1,5-a]pyridin-5-yl)imidazo[1,2-b][1,2,4]triazin-6-yl)methyl)-1-ethyl-1H-pyrazole-5-carboxamide], for which the values for the IC50 in test [1] and in test [2] were 100 to 1000 nM and under 100 nM, respectively.

`CCn1nccc1C(=O)N[C@H](c1cn2nc(C[C@H]3C[C@@H](C(F)(F)F)CNC3=O)c(CCN3CCOCC3)nc2n1)C1CCC(F)(F)CC1` [Compound 359]: the IC50 in test [1] was 100 to 1000 nM; in test [2] it was under 100 nM.

Take `CCn1nccc1C(=O)N[C@H](c1cn2nc(C[C@H]3C[C@@H](C(F)(F)F)CNC3=O)c(N3CC4CC(C3)N4C)nc2n1)C1CCC(F)(F)CC1` [Compound 360, N-((1S)-(4,4-difluorocyclohexyl)(3-(6-methyl-3,6-diazabicyclo[3.1.1]heptan-3-yl)-2-(((3R,5R)-2-oxo-5-(trifluoromethyl)piperidin-3-yl)methyl)imidazo[1,2-b][1,2,4]triazin-6-yl)methyl)-1-ethyl-1H-pyrazole-5-carboxamide]: the IC50 in test [1] and in test [2] was 100 to 1000 nM in each case.

As to `CCn1nccc1C(=O)N[C@H](c1cn2nc(C[C@H]3C[C@@H](C(F)(F)F)CNC3=O)c(N3CC4CCC(C3)N4C)nc2n1)C1CCC(F)(F)CC1` [Compound 361, N-((1S)-(4,4-difluorocyclohexyl)(3-(8-methyl-3,8-diazabicyclo[3.2.1]octan-3-yl)-2-(((3R,5R)-2-oxo-5-(trifluoromethyl)piperidin-3-yl)methyl)imidazo[1,2-b][1,2,4]triazin-6-yl)methyl)-1-ethyl-1H-pyrazole-5-carboxamide], the results for the IC50 in test [1] and in test [2] were 100 to 1000 nM and under 100 nM, respectively.

Take `CN(C)CCn1nccc1C(=O)N[C@H](c1cn2nc(C[C@H]3C[C@@H](C(F)(F)F)CNC3=O)c(C3CCOCC3)nc2n1)C1CCC(F)(F)CC1` [Compound 362, N—((S)-(4,4-difluorocyclohexyl)(2-(((3R,5R)-2-oxo-5-(trifluoromethyl)piperidin-3-yl)methyl)-3-(tetrahydro-2H-pyran-4-yl)imidazo[1,2-b][1,2,4]triazin-6-yl)methyl)-1-(2-(dimethylamino)ethyl)-1H-pyrazole-5-carboxamide]: the IC50 in test [1] was over 1000 nM; in test [2], 100 to 1000 nM.

For the molecule `CCn1ncnc1C(=O)N[C@H](c1cn2nc(C[C@H]3C[C@@H](C(F)(F)F)CNC3=O)c(C3CCOCC3)nc2n1)C1CCC(F)(F)CC1` [Compound 363, N—((S)-(4,4-difluorocyclohexyl)(2-(((3R,5R)-2-oxo-5-(trifluoromethyl)piperidin-3-yl)methyl)-3-(tetrahydro-2H-pyran-4-yl)imidazo[1,2-b][1,2,4]triazin-6-yl)methyl)-1-ethyl-1H-1,2,4-triazole-5-carboxamide], the IC50 in test [1] was over 1000 nM; in test [2] it was under 100 nM.

Consider `CCn1nncc1C(=O)N[C@H](c1cn2nc(C[C@H]3C[C@@H](C(F)(F)F)CNC3=O)c(C3CCOCC3)nc2n1)C1CCC(F)(F)CC1` [Compound 364, N—((S)-(4,4-difluorocyclohexyl)(2-(((3R,5R)-2-oxo-5-(trifluoromethyl)piperidin-3-yl)methyl)-3-(tetrahydro-2H-pyran-4-yl)imidazo[1,2-b][1,2,4]triazin-6-yl)methyl)-1-ethyl-1H-1,2,3-triazole-5-carboxamide], for which the IC50 in test [1] was over 1000 nM; in test [2] it was under 100 nM.

On to `CCn1nccc1C(=O)N[C@H](c1cn2nc(C[C@H]3C[C@@H](C(F)(F)F)CNC3=O)c(N3CCOC(C)(C)C3)nc2n1)C1CCC(F)(F)CC1` [Compound 365, N—((S)-(4,4-difluorocyclohexyl)(3-(2,2-dimethylmorpholino)-2-(((3R,5R)-2-oxo-5-(trifluoromethyl)piperidin-3-yl)methyl)imidazo[1,2-b][1,2,4]triazin-6-yl)methyl)-1-ethyl-1H-pyrazole-5-carboxamide], for which the IC50 was 100 to 1000 nM in test [1] and under 100 nM in test [2].

Turning to `CCn1nccc1C(=O)N[C@H](c1cn2nc(C[C@H]3C[C@@H](C(F)(F)F)CNC3=O)c(N3CCN4CCOC[C@@H]4C3)nc2n1)C1CCC(F)(F)CC1` [Compound 366, N—((S)-(4,4-difluorocyclohexyl)(3-((S)-hexahydropyrazino[2,1-c][1,4]oxazin-8(1H)-yl)-2-(((3R,5R)-2-oxo-5-(trifluoromethyl)piperidin-3-yl)methyl)imidazo[1,2-b][1,2,4]triazin-6-yl)methyl)-1-ethyl-1H-pyrazole-5-carboxamide], the IC50 in test [1] and in test [2] was under 100 nM in each case.

For the molecule `CCn1nccc1C(=O)N[C@H](c1cn2nc(C[C@H]3C[C@@H](C(F)(F)F)CNC3=O)c(N3CCN4CCCC[C@@H]4C3)nc2n1)C1CCC(F)(F)CC1` [Compound 367, N—((S)-(4,4-difluorocyclohexyl)(3-((R)-octahydro-2H-pyrido[1,2-a]pyrazin-2-yl)-2-(((3R,5R)-2-oxo-5-(trifluoromethyl)piperidin-3-yl)methyl)imidazo[1,2-b][1,2,4]triazin-6-yl)methyl)-1-ethyl-1H-pyrazole-5-carboxamide], the IC50 in test [1] and in test [2] was under 100 nM in each case.

In the case of `CCn1nccc1C(=O)N[C@H](c1cn2nc(C[C@H]3C[C@@H](C(F)(F)F)CNC3=O)c(N3CCN4CCC[C@@H]4C3)nc2n1)C1CCC(F)(F)CC1` [Compound 368, N—((S)-(4,4-difluorocyclohexyl)(3-((R)-hexahydropyrrolo[1,2-a]pyrazin-2(1H)-yl)-2-(((3R,5R)-2-oxo-5-(trifluoromethyl)piperidin-3-yl)methyl)imidazo[1,2-b][1,2,4]triazin-6-yl)methyl)-1-ethyl-1H-pyrazole-5-carboxamide], the IC50 in test [1] is 100 to 1000 nM; in test [2], under 100 nM.

As for `CCn1nccc1C(=O)N[C@H](c1cn2nc(C[C@H]3C[C@@H](C(F)(F)F)CNC3=O)c(C3CCCCN3CCOC)nc2n1)C1CCC(F)(F)CC1` (stereo partly drawn) [Compound 369, N-((1S)-(4,4-difluorocyclohexyl)(3-(1-(2-methoxyethyl)piperidin-2-yl)-2-(((3R,5R)-2-oxo-5-(trifluoromethyl)piperidin-3-yl)methyl)imidazo[1,2-b][1,2,4]triazin-6-yl)methyl)-1-ethyl-1H-pyrazole-5-carboxamide], the IC50 in test [1] was over 1000 nM; in test [2] it was 100 to 1000 nM.

For the molecule `CCn1nccc1C(=O)N[C@H](c1cn2nc(C[C@H]3C[C@@H](C(F)(F)F)CNC3=O)c(C3CCN(CCOC)C3)nc2n1)C1CCC(F)(F)CC1` (stereo partly drawn) [Compound 370, N-((1S)-(4,4-difluorocyclohexyl)(3-(1-(2-methoxyethyl)pyrrolidin-3-yl)-2-(((3R,5R)-2-oxo-5-(trifluoromethyl)piperidin-3-yl)methyl)imidazo[1,2-b][1,2,4]triazin-6-yl)methyl)-1-ethyl-1H-pyrazole-5-carboxamide], the IC50 in test [1] is over 1000 nM; in test [2] it was 100 to 1000 nM.
